Results reported in patent US9119398B2, “Plant growth regulating compounds” (Syngenta Participations AG, priority 2012, dated 2015).

Experiments:
[1] = tested on: Orobanche cumana Wallr. seeds; assay: Germination of preconditioned Orobanche cumana seeds on glass fiber filter paper in petri dishes; format: in vivo; settings: mean, N = 5 × 100 seeds, seed lot IN153
Procedure: The effect of compounds of Formula (I) on germination of Orobanche cumana Wallr. seeds was evaluated on glass fiber filter paper (GFFP) in petri dishes. Seeds were preconditioned at moisture and suitable temperature to become responsive to the specific chemical germination stimulants.
Test compounds were dissolved in DMSO (10 000 mg l^−1) and stored at room temperature in a desiccators with desiccants. The stock solutions were dissolved with deionised water to the appropriate final test concentration.
Seeds of O. cumana race ‘F’ (IN153) were collected from a sunflower field in Manzanilla (Seville, Spain) in 2006 and stored at room temperature. To separate seeds from heavy organic debris, a modified sucrose floatation technique as described by Hartman & Tanimonure (Plant Disease (1991), 75, p. 494) was applied. Seeds were filled into a separation funnel and stirred in water. When seeds floated to the surface, the water fraction containing heavy debris was discarded. Seeds were re-suspended in 2.5M sucrose solution (specific gravity of 1.20) and heavy debris was allowed to settle down for 60 min After removing debris, seeds were disinfected in 1% sodium hypochlorite solution and 0.025% (v/v) Tween 20 for 2 min. The seeds were decanted onto two layers of cheesecloth, rinsed with sterile deionised water and re-suspended in sterile deionised water. Two ml of the seed suspension containing approximately 150-400 seeds were spread evenly on two layers of sterile glass fiber filter paper disc ([…]) in Petri dishes (Ø9 cm). After wetting the discs with 3 ml sterile deionised water, petri dishes were sealed with parafilm. Seeds were incubated for 10 days at 20° C. in the dark for seed conditioning. The upper disc with conditioned seeds was briefly dried, transferred to a petri dish lined with a dry GFFP disc, and wetted with 6 ml of the appropriate test solution. The compounds of Formula (I) were tested at concentrations of 0.001, 0.01, 0.1, or 1 mg l^−. The strigolactone analogue GR24 was included as positive control and 0.01% DMSO as negative control. All treatments were tested in five replicates. Seeds were re-incubated at 20° C. in the dark and examined for germination 10 days later. The radicles of germinated seeds were stained for 5 min with blue ink (MIGROS, Switzerland) in 5% acetic acid according to Long et al. (Seed Science Research (2008), 18, p. 125). After staining, seeds were photographed using a camera stand mounted with a digital SLR camera (Canon EOS 5D). Germination of 100 seeds per replicate was evaluated on digital images. Seeds were considered germinated when the radicle protruded from the seed coat.

[2] = tested on: Brassica oleracea cv Botrytis (temperate cauliflower) seeds; assay: Paper germination test, temperate cauliflower seeds, 10° C. in the light; format: in vivo; settings: 25 μM, sets A and B separate experiments
Procedure: The effect of compounds of Formula (I) on the germination of Brassica oleracea cv Botrytis or common cauliflower was tested on two types of cauliflowers: temperate types and tropical types. These two types were chosen because they display different sensitivities to the light conditions and temperature during germination. Germination of a sensitive temperate type is inhibited by light at 10° C. while for the tropical types germination at 20° is stimulated by the presence of light.
The temperate seed batches tested are part of commercially produced seed batches of various varieties which are known to be sensitive to light at 10° C. These seeds were harvested and cleaned according standard commercial procedures. Ready seed batches were used (Ready indicates the processing level of these seeds: they have been cleaned and sized but received no other treatments). The tropical seed batches tested are part of seed batches produced as basic seed (for maintenance of the parental line) and were processed accordingly.
Germination was assessed using the standard paper germination test for Brassica: Fifty seeds were placed on blue germination paper, which was moistened with the appropriate solutions, in closed oblong germination boxes. Each condition was tested in duplo. Germination boxes were placed in controlled germination cabinets with the appropriate temperature and light conditions. Germination of seeds was counted at regular intervals. Seeds were considered to be germinated when the radical had protruded the testa and endosperm (radical size approximately 1 mm)
Test compounds were dissolved in DMSO at a concentration of 50 mM and stored at −20° C. The strigolactone analogue GR24 (commercially available as a racemic mixture of 2 diastereoisomers, referred to as “synthetic strigolactone GR-24” and first prepared by Johnson A. W. & all, Journal of the Chemical Society, Perkin Transactions 1, 1981, page 1734-1743) was included as positive control. Germination solutions were prepared by diluting the stock solutions with demineralized water till 25 μM. As control solutions demineralized water and a 0.05% v/v DMSO solution were used.

[3] = Table B3, concentration 0.001 mg 1^−1, DMSO control 0% germination
[4] = Table B3, concentration 0.01 mg 1^−1, DMSO control 0% germination
[5] = Table B3, concentration 0.1 mg 1^−1, DMSO control 0% germination
[6] = Table B2, concentration 0.01 mg 1^−1, DMSO control 2.4% germination
[7] = Table B2, concentration 0.1 mg 1^−1, DMSO control 2.4% germination
[8] = Table B2, concentration 1 mg 1^−1, DMSO control 2.4% germination
[9] = temperate cauliflower Spacestar seed batch 11B313 (cold-sensitive)
[10] = temperate cauliflower Spacestar seed batch 11B314 (not cold sensitive)
[11] = Table B1, concentration 0.001 mg 1^−1, DMSO control 0.4% germination
[12] = Table B1, concentration 0.1 mg 1^−1, DMSO control 0.4% germination
[13] = Table B1, concentration 1 mg 1^−1, DMSO control 0.4% germination

SMILES: CC1=CC(O/C=C2\CCC(c3ccccc3)N(C(=O)OC(C)(C)C)C2=O)OC1=O (centres unmarked) [Ib-12, tert-butyl (3E)-3-[(4-methyl-5-oxo-2H-furan-2-yl)oxymethylene]-2-oxo-6-phenyl-piperidine-1-carboxylate]
- Germination (%) [1, 3]: 91%
- Germination (%) [1, 4]: 89%
- Germination (%) [1, 5]: 90.2%

SMILES: CC1=CC(O/C=C2\CCN(c3ccccc3)C2=O)OC1=O (centres unmarked) [I-3, (3E)-3-[(4-methyl-5-oxo-2H-furan-2-yl)oxymethylene]-1-phenyl-pyrrolidin-2-one]
- Germination (%) [1, 6]: 0%
- Germination (%) [1, 7]: 1.6%
- Germination (%) [1, 8]: 19.2%

SMILES: CC1=CC(O/C=C2\CCN(C(=O)OC(C)(C)C)C2=O)OC1=O (centres unmarked) [Ib-8, tert-butyl (3E)-3-[(4-methyl-5-oxo-2H-furan-2-yl)oxymethylene]-2-oxo-pyrrolidine-1-carboxylate]
- Germination (%) [1, 6]: 0.2%
- Germination (%) [1, 7]: 2.8%
- Germination (%) [1, 8]: 1.4%

SMILES: CC1=CC(O/C=C2/C(=O)NC3C=CCC23)OC1=O (centres unmarked) [Ia-1, (3E)-3-[(4-methyl-5-oxo-2H-furan-2-yl)oxymethylene]-1,3a,4,6a-tetrahydrocyclopenta[b]pyrrol-2-one]
- Gmax (%), total germination as percentage of sown seeds [2, 9]: 72.0%
- stimulation (%), extra germination compared to the DMSO treatment, as percentage of the germination in the DMSO treatment [2, 9]: 20.0%
- Gmax (%), total germination as percentage of sown seeds [2, 10]: 96.5%
- stimulation (%), extra germination compared to the DMSO treatment, as percentage of the germination in the DMSO treatment [2, 10]: 6.6%
- Germination (%) [1, 11]: 1.4%
- Germination (%) [1, 12]: 24.6%
- Germination (%) [1, 13]: 23.2%

SMILES: CC1=C[C@H](O/C=C2/C(=O)N[C@@H]3C=CC[C@H]23)OC1=O [Ia-1′, (3E,3aR,6aR)-3-[[(2R)-4-methyl-5-oxo-2H-furan-2-yl]oxymethylene]-1,3a,4,6a-tetrahydrocyclopenta[b]pyrrol-2-one]
- Germination (%) ([1]; Table B6, concentration 0.001 mg 1^−1, DMSO control 2.4% germination): 68.0%
- Germination (%) ([1]; Table B6, concentration 0.1 mg 1^−1, DMSO control 2.4% germination): 55.3%
- Germination (%) ([1]; Table B6, concentration 1 mg 1^−1, DMSO control 2.4% germination): 54.8%

SMILES: CC1=CC(O/C=C2/C(=O)N(C(=O)OC(C)(C)C)C3CCCC23)OC1=O (centres unmarked) [Ib-2, tert-butyl (3E)-3-[(4-methyl-5-oxo-2H-furan-2-yl)oxymethylene]-2-oxo-4,5,6,6a-tetrahydro-3aH-cyclopenta[b]pyrrole-1-carboxylate]
- Germination (%) [1, 11]: 0%
- Germination (%) [1, 12]: 18.2%
- Germination (%) [1, 13]: 54.8%

SMILES: CC1=CC(O/C=C2\CCC(c3ccccc3)NC2=O)OC1=O (centres unmarked) [Ia-12, (3E)-3-[(4-methyl-5-oxo-2H-furan-2-yl)oxymethylene]-6-phenyl-piperidin-2-one]
- Germination (%) [1, 3]: 93.3%
- Germination (%) [1, 4]: 86.8%
- Germination (%) [1, 5]: 92.4%

SMILES: CC1=CC(O/C=C2\CCCN(c3ccccc3)C2=O)OC1=O (centres unmarked) [I-5, (3E)-3-[(4-methyl-5-oxo-2H-furan-2-yl)oxymethylene]-1-phenyl-piperidin-2-one]
- Germination (%) [1, 6]: 1%
- Germination (%) [1, 7]: 0%
- Germination (%) [1, 8]: 42.2%

SMILES: CC1=CC(O/C=C2\CC(=O)N(C)C2=O)OC1=O (centres unmarked) [I-7, (3E)-1-methyl-3-[(4-methyl-5-oxo-2H-furan-2-yl)oxymethylene]pyrrolidine-2,5-dione]
- Germination (%) [1, 6]: 1%
- Germination (%) [1, 7]: 1.4%
- Germination (%) [1, 8]: 17.2%

SMILES: CC1=CC(O/C=C2/C(=O)N(C(=O)OC(C)(C)C)C3C=CCC23)OC1=O (centres unmarked) [Ib-1, tert-butyl (3E)-3-[(4-methyl-5-oxo-2H-furan-2-yl)oxymethylene]-2-oxo-4,6a-dihydro-3aH-cyclopenta[b]pyrrole-1-carboxylate]
- Germination (%) [1, 11]: 0%
- Germination (%) [1, 12]: 25.8%
- Germination (%) [1, 13]: 92.6%

SMILES: CC1=CC(O/C=C2\CC(C)N(C(=O)OC(C)(C)C)C2=O)OC1=O (centres unmarked) [Ib-6, tert-butyl (3E)-5-methyl-3-[(4-methyl-5-oxo-2H-furan-2-yl)oxymethylene]-2-oxo-pyrrolidine-1-carboxylate]
- Germination (%) [1, 11]: 0.4%
- Germination (%) [1, 12]: 1.8%
- Germination (%) [1, 13]: 5.6%

SMILES: CC1=CC(O/C=C2\CC(c3ccccc3)N(C(=O)OC(C)(C)C)C2=O)OC1=O (centres unmarked) [Ib-10, tert-butyl (3E)-3-[(4-methyl-5-oxo-2H-furan-2-yl)oxymethylene]-2-oxo-5-phenyl-pyrrolidine-1-carboxylate]
- Germination (%) [1, 3]: 72.8%
- Germination (%) [1, 4]: 72.4%
- Germination (%) [1, 5]: 71.8%

SMILES: CC1=CC(O/C=C2\CCNC2=O)OC1=O (centres unmarked) [Ia-8, (3E)-3-[(4-methyl-5-oxo-2H-furan-2-yl)oxymethylene]pyrrolidin-2-one]
- Gmax (%), total germination as percentage of sown seeds [2, 9]: 77.0%
- stimulation (%), extra germination compared to the DMSO treatment, as percentage of the germination in the DMSO treatment [2, 9]: 42.6%
- Gmax (%), total germination as percentage of sown seeds [2, 10]: 93.0%
- stimulation (%), extra germination compared to the DMSO treatment, as percentage of the germination in the DMSO treatment [2, 10]: 8.1%

SMILES: CC1=CC(O/C=C2\CCCCN(C(=O)OC(C)(C)C)C2=O)OC1=O (centres unmarked) [Ib-13, tert-butyl (3E)-3-[(4-methyl-5-oxo-2H-furan-2-yl)oxymethylene]-2-oxo-azepane-1-carboxylate]
- Germination (%) ([1]; Concentration 0.01 mg l^-1, 10 days at 20° C. in the dark): 48%
- Germination (%) ([1]; Concentration 0.01 mg l^-1 as printed, 10 days at 20° C. in the dark): 83%
- Germination (%) ([1]; Concentration 1 mg l^-1, 10 days at 20° C. in the dark): 90.8%

SMILES: CC1=CC(O/C=C2/C(=O)NC3CCCC23)OC1=O (centres unmarked) [Ia-2, (3E)-3-[(4-methyl-5-oxo-2H-furan-2-yl)oxymethylene]-1,3a,4,5,6,6a-hexahydrocyclopenta[b]pyrrol-2-one]
- Germination (%) [1, 6]: 75.4%
- Germination (%) [1, 7]: 65.4%
- Germination (%) [1, 8]: 83.4%

SMILES: CC1=CC(O/C=C2\CC(C)N(c3ccccc3)C2=O)OC1=O (centres unmarked) [I-4, (3E)-5-methyl-3-[(4-methyl-5-oxo-2H-furan-2-yl)oxymethylene]-1-phenyl-pyrrolidin-2-one]
- Germination (%) [1, 6]: 0.6%
- Germination (%) [1, 7]: 1%
- Germination (%) [1, 8]: 18.2%
